Measurements reported in US10287275B2, “16-member triamilide derivatives and uses thereof” (VICTOR PHARMA CO., LTD. ZHENJIANG, priority 2015, dated 2019).
Converted amounts (≈) assume the structure as drawn.

How the values were obtained:
Format in all cases: cell-based
[1] = tested on: Actinobacillus pleuropneumoniae serotype 1; assay: Antibacterial MIC, agar-dilution or broth-dilution microtiter test; details: Strain A: Actinobacillus pleuropneumoniae serotype 1
Description: (§1) The MIC's in Table I and Table II were determined by standard agar-dilution assays or broth-dilution microtiter test.

[2] = tested on: Actinobacillus pleuropneumoniae serotype 7; assay: as above; details: Strain B: Actinobacillus pleuropneumoniae serotype 7
Description: as §1

[3] = tested on: Escherichia coli 25922 (QC strain); assay: as above; details: Strain F: Escherichia coli 25922 (QC strain)
Description: as §1

[4] = tested on: Escherichia coli IN-F6-7; assay: as above; details: INF67; Strain E: Escherichia coli IN-F6-7
Description: as §1

[5] = tested on: Klebsiella pneumoniae 3699; assay: as above; details: Strain K: Klebsiella pneumoniae 3699
Description: as §1

[6] = tested on: Klebsiella pneumoniae 3753; assay: as above; details: Strain J: Klebsiella pneumoniae 3753
Description: as §1

[7] = tested on: Pasteurella 8217; assay: as above; details: Strain C: Pasteurella 8217
Description: as §1

[8] = tested on: Pasteurella 8229; assay: as above; details: Strain D: Pasteurella 8229
Description: as §1

[9] = tested on: Staphylococcus aureus 29213 (QC strain); assay: as above; details: Strain H: Staphylococcus aureus 29213 (QC strain)
Description: as §1

[10] = tested on: Staphylococcus aureus 5-1; assay: as above; details: 51; Strain G: Staphylococcus aureus 5-1
Description: as §1

[11] = tested on: Streptococcus pneumoniae 2349; assay: as above; details: Strain L: Streptococcus pneumoniae 2349
Description: as §1

[12] = tested on: Streptococcus pneumoniae 49619 (QC strain); assay: as above; details: Strain M: Streptococcus pneumoniae 49619 (QC strain)
Description: as §1

[13] = tested on: salmonella LD4-8; assay: as above; details: LD48; Strain I: salmonella LD4-8
Description: as §1

[14] = tested on: M. gallisepticum BG44T; assay: Mycoplasma susceptibility testing (MIC); details: Mycoplasmoides gallisepticum
Description: as §1

[15] = tested on: M. gallisepticum S6; assay: Mycoplasma susceptibility testing (MIC); details: Mycoplasmoides gallisepticum
Description: as §1

[16] = tested on: M. hyorinis BTS-7; assay: Mycoplasma susceptibility testing (MIC)
Description: as §1

| Structure (SMILES) | MIC [1] [mg/L] | MIC [2] [mg/L] | MIC [3] [mg/L] | MIC [4] [mg/L] | MIC [5] [mg/L] | MIC [6] [mg/L] | MIC [7] [mg/L] | MIC [8] [mg/L] | MIC [9] [mg/L] | MIC [10] [mg/L] | MIC [11] [mg/L] | MIC [12] [mg/L] | MIC [13] [mg/L] | MIC [14] [mg/L] | MIC [15] [mg/L] | MIC [16] [mg/L] |
| --- | --- | --- | --- | --- | --- | --- | --- | --- | --- | --- | --- | --- | --- | --- | --- | --- |
| CCCCNC[C@H]1/C=C(C)/C=C/C(=O)[C@H](C)C[C@H](CCN2CCCCC2)[C@H](O[C@@H]2O[C@H](C)[C@@H](O)[C@H](N(C)C)[C@H]2O)[C@@H](C)[C@H](O)CC(=O)O[C@@H]1CC [Compound 4c, (4R,5S,6S,7R,9R,11E,13E,15R,16R)-15-((butylamino)methyl)-6-(((2R,3R,4S,5S,6R)-4-(dimethylamino)-3,5-dihydroxy-6-methyltetrahydro-2H-pyran-2-yl)oxy)-16-ethyl-4-hydroxy-5,9,13-trimethyl-7-(2-(piperidin-1-yl)ethyl)oxacyclohexadeca-11,13-diene-2,10-dione] | 64 (≈ 88.6 µM) | 128 (≈ 177 µM) | 16 (≈ 22.2 µM) | 16 (≈ 22.2 µM) | > 256 | 128 (≈ 177 µM) | 4 (≈ 5.54 µM) | 4 (≈ 5.54 µM) | 64 (≈ 88.6 µM) | > 256 | 2 (≈ 2.77 µM) | 256 (≈ 355 µM) | 32 (≈ 44.3 µM) | 7.82 (≈ 10.8 µM) | 15.6 (≈ 21.6 µM) | 31.2 (≈ 43.3 µM) |
| CCCN(CCC)C[C@H]1/C=C(C)/C=C/C(=O)[C@H](C)C[C@H](CCN2CCCCC2)[C@H](O[C@@H]2O[C@H](C)[C@@H](O)[C@H](N(C)C)[C@H]2O)[C@@H](C)[C@H](O)CC(=O)O[C@@H]1CC [Compound 4b, (4R,5S,6S,7R,9R,11E,13E,15R,16R)-6-(((2R,3R,4S,5S,6R)-4-(dimethylamino)-3,5-dihydroxy-6-methyltetrahydro-2H-pyran-2-yl)oxy)-15-((dipropylamino)methyl)-16-ethyl-4-hydroxy-5,9,13-trimethyl-7-(2-(piperidin-1-yl)ethyl)oxacyclohexadeca-11,13-diene-2,10-dione] | 32 (≈ 42.7 µM) | 32 (≈ 42.7 µM) | 4 (≈ 5.33 µM) | 8 (≈ 10.7 µM) | > 256 | 32 (≈ 42.7 µM) | 1 (≈ 1.33 µM) | 0.25 (≈ 0.333 µM) | 16 (≈ 21.3 µM) | > 256 | 1 (≈ 1.33 µM) | 16 (≈ 21.3 µM) | 8 (≈ 10.7 µM) | < 0.12 | 0.49 (≈ 0.653 µM) | 15.6 (≈ 20.8 µM) |
| CC[C@H]1OC(=O)C[C@@H](O)[C@H](C)[C@@H](O[C@@H]2O[C@H](C)[C@@H](O)[C@H](N(C)C)[C@H]2O)[C@@H](CCN2C[C@H](C)C[C@H](C)C2)C[C@@H](C)C(=O)/C=C/C(C)=C/[C@@H]1CO[C@@H]1O[C@H](C)[C@@H](O)[C@@H](OC)[C@H]1OC [Tilmicosin, reference compound] | 32 (≈ 36.8 µM) | 32 (≈ 36.8 µM) | 8 (≈ 9.2 µM) | 16 (≈ 18.4 µM) | > 256 | 64 (≈ 73.6 µM) | 8 (≈ 9.2 µM) | 0.5 (≈ 0.575 µM) | 0.5 (≈ 0.575 µM) | > 256 | 0.5 (≈ 0.575 µM) | 8 (≈ 9.2 µM) | 32 (≈ 36.8 µM) | < 0.12 | < 0.12 | 3.91 (≈ 4.5 µM) |
| CC[C@H]1OC(=O)C[C@@H](O)[C@H](C)[C@@H](O[C@@H]2O[C@H](C)[C@@H](O)[C@H](N(C)C)[C@H]2O)[C@@H](CCN2CCCCC2)C[C@@H](C)C(=O)/C=C/C(C)=C/[C@@H]1CN(C)Cc1ccccc1 [Compound 4f, (4R,5S,6S,7R,9R,11E,13E,15R,16R)-15-((benzyl(methyl)amino)methyl)-6-(((2R,3R,4S,5S,6R)-4-(dimethylamino)-3,5-dihydroxy-6-methyltetrahydro-2H-pyran-2-yl)oxy)-16-ethyl-4-hydroxy-5,9,13-trimethyl-7-(2-(piperidin-1-yl)ethyl)oxacyclohexadeca-11,13-diene-2,10-dione] | 16 (≈ 20.8 µM) | 64 (≈ 83.1 µM) | 4 (≈ 5.19 µM) | 4 (≈ 5.19 µM) | > 256 | 32 (≈ 41.6 µM) | < 0.12 | 0.12 (≈ 0.156 µM) | 2 (≈ 2.6 µM) | 128 (≈ 166 µM) | < 0.12 | 0.5 (≈ 0.649 µM) | 4 (≈ 5.19 µM) | < 0.12 | 0.24 (≈ 0.312 µM) | 0.98 (≈ 1.27 µM) |
| CC[C@H]1OC(=O)C[C@@H](O)[C@H](C)[C@@H](O[C@@H]2O[C@H](C)[C@@H](O[C@H]3C[C@@](C)(O)[C@@H](O)[C@H](C)O3)[C@H](N(C)C)[C@H]2O)[C@@H](CC=O)C[C@@H](C)C(=O)/C=C/C(C)=C/[C@@H]1CO[C@@H]1O[C@H](C)[C@@H](O)[C@@H](OC)[C@H]1OC [Tylosin, reference compound] | 16 (≈ 17.5 µM) | 8 (≈ 8.73 µM) | 256 (≈ 279 µM) | 256 (≈ 279 µM) | > 256 | > 256 | 32 (≈ 34.9 µM) | 32 (≈ 34.9 µM) | 2 (≈ 2.18 µM) | > 256 | < 0.12 | 2 (≈ 2.18 µM) | > 256 | < 0.12 | < 0.12 | 1.95 (≈ 2.13 µM) |
| CC[C@H]1OC(=O)C[C@@H](O)[C@H](C)[C@@H](O[C@@H]2O[C@H](C)[C@@H](O)[C@H](N(C)C)[C@H]2O)[C@@H](CCN2CCCCC2)C[C@@H](C)C(=O)/C=C/C(C)=C/[C@@H]1CNCc1ccccc1 [Compound 4e, (4R,5S,6S,7R,9R,11E,13E,15R,16R)-15-((benzylamino)methyl)-6-(((2R,3R,4S,5S,6R)-4-(dimethylamino)-3,5-dihydroxy-6-methyltetrahydro-2H-pyran-2-yl)oxy)-16-ethyl-4-hydroxy-5,9,13-trimethyl-7-(2-(piperidin-1-yl)ethyl)oxacyclohexadeca-11,13-diene-2,10-dione] | 256 (≈ 339 µM) | 256 (≈ 339 µM) | 256 (≈ 339 µM) | 256 (≈ 339 µM) | > 256 | > 256 | 32 (≈ 42.3 µM) | 16 (≈ 21.2 µM) | 64 (≈ 84.7 µM) | 256 (≈ 339 µM) | 64 (≈ 84.7 µM) | 256 (≈ 339 µM) | > 256 | – | – | – |
| CC[C@H]1OC(=O)C[C@@H](O)[C@H](C)[C@@H](O[C@@H]2O[C@H](C)[C@@H](O)[C@H](N(C)C)[C@H]2O)[C@@H](CCN2CCCCC2)C[C@@H](C)C(=O)/C=C/C(C)=C/[C@@H]1CN(CCO)CCO [Compound 4g, (4R,5S,6S,7R,9R,11E,13E,15R,16R)-15-((bis(2-hydroxyethyl)amino)methyl)-6-(((2R,3R,4S,5S,6R)-4-(dimethylamino)-3,5-dihydroxy-6-methyltetrahydro-2H-pyran-2-yl)oxy)-16-ethyl-4-hydroxy-5,9,13-trimethyl-7-(2-(piperidin-1-yl)ethyl)oxacyclohexadeca-11,13-diene-2,10-dione] | 256 (≈ 340 µM) | 256 (≈ 340 µM) | 256 (≈ 340 µM) | 256 (≈ 340 µM) | > 256 | > 256 | < 0.12 | 32 (≈ 42.4 µM) | 128 (≈ 170 µM) | > 256 | 32 (≈ 42.4 µM) | > 256 | 128 (≈ 170 µM) | – | – | – |
| CC[C@H]1OC(=O)C[C@@H](O)[C@H](C)[C@@H](O[C@@H]2O[C@H](C)[C@@H](O)[C@H](N(C)C)[C@H]2O)[C@@H](CCN2CCCCC2)C[C@@H](C)C(=O)/C=C/C(C)=C/[C@@H]1CN1CCCCC1 [Zuprevo, reference compound] | 64 (≈ 87.2 µM) | 64 (≈ 87.2 µM) | 4 (≈ 5.45 µM) | 4 (≈ 5.45 µM) | > 256 | 32 (≈ 43.6 µM) | 1 (≈ 1.36 µM) | 1 (≈ 1.36 µM) | 256 (≈ 349 µM) | > 256 | 0.5 (≈ 0.681 µM) | 256 (≈ 349 µM) | 8 (≈ 10.9 µM) | < 0.12 | < 0.12 | 1.95 (≈ 2.66 µM) |
